Measurements reported in ChEMBL document CHEMBL3352783, “A highly water soluble benzimidazole derivative useful for the treatment of fasciolosis” (Bioorg Med Chem Lett, 2014).
In brackets after ≈: the same amount, converted by molar mass.

Columns and labels:
[1] = Aqueous solubility of the compound at pH 7 and 25 degC; format: physicochemical
[2] = Aqueous stability of the compound assessed as time duration showing >95% compound stability at pH 7 and room temperature by UV-HPLC; format: physicochemical; details: buffer
Fasciola hepatica [3] = assay: Antiparasitic activity against Fasciola hepatica assessed as mortality at 50 mg/L after 24 hrs relative to untreated control; format: functional
Fasciola hepatica [4] = assay: Antiparasitic activity against Fasciola hepatica assessed as mortality at 10 mg/L after 24 hrs relative to untreated control; format: functional
Fasciola hepatica [5] = assay: Antiparasitic activity against Fasciola hepatica assessed as mortality at 50 mg/L after 48 hrs relative to untreated control; format: functional
Fasciola hepatica [6] = assay: Antiparasitic activity against Fasciola hepatica assessed as mortality at 10 mg/L after 48 hrs relative to untreated control; format: functional
Fasciola hepatica [7] = assay: Antiparasitic activity against Fasciola hepatica assessed as mortality at 50 mg/L after 72 hrs relative to untreated control; format: functional
Fasciola hepatica [8] = assay: Antiparasitic activity against Fasciola hepatica assessed as mortality at 10 mg/L after 72 hrs relative to untreated control; format: functional
Fasciola hepatica [9] = assay: Antiparasitic activity against 10 week old Fasciola hepatica infected in sheep assessed as reduction in worm burden at 15 mg/kg, po; format: functional
Fasciola hepatica [10] = assay: Antiparasitic activity against Fasciola hepatica infected in sheep assessed as reduction of eggs at 12 mg/kg, po; format: functional
Fasciola hepatica [11] = assay: Antiparasitic activity against Fasciola hepatica infected in sheep assessed as reduction of eggs at 4 mg/kg, intramuscular; format: functional
Fasciola hepatica [12] = assay: Antiparasitic activity against Fasciola hepatica infected in sheep assessed as reduction of eggs at 4 mg/kg, sc; format: functional; details: route subcutaneous
Fasciola hepatica [13] = assay: Antiparasitic activity against Fasciola hepatica infected in sheep assessed as fluke reduction at 12 mg/kg, po; format: functional
Fasciola hepatica [14] = assay: Antiparasitic activity against Fasciola hepatica infected in sheep assessed as fluke reduction at 4 mg/kg, intramuscular; format: functional
Fasciola hepatica [15] = assay: Antiparasitic activity against Fasciola hepatica infected in sheep assessed as fluke reduction at 4 mg/kg, sc; format: functional; details: route subcutaneous

Structure (SMILES) | solubility [1] [µg/mL] | Stability [2] [h] | Efficacy (Fasciola hepatica [3]) [%] | Efficacy (Fasciola hepatica [4]) [%] | Efficacy (Fasciola hepatica [5]) [%] | Efficacy (Fasciola hepatica [6]) [%] | Efficacy (Fasciola hepatica [7]) [%] | Efficacy (Fasciola hepatica [8]) [%] | Efficacy (Fasciola hepatica [9]) [%] | Efficacy (Fasciola hepatica [10]) [%] | Efficacy (Fasciola hepatica [11]) [%] | Efficacy (Fasciola hepatica [12]) [%] | Efficacy (Fasciola hepatica [13]) [%] | Efficacy (Fasciola hepatica [14]) [%] | Efficacy (Fasciola hepatica [15]) [%]
CSc1nc2cc(Cl)c(Oc3cccc(Cl)c3Cl)cc2[nH]1 [TRICLABENDAZOLE] | 0.2 (≈ 0.556 µM) | > 24 | 100 | 100 | 100 | 100 | 100 | 100 | – | – | – | – | – | – | –
CSc1nc2cc(Oc3cccc4ccccc34)c(Cl)cc2[nH]1 | – | > 26 | – | – | – | – | – | – | 86.9 | – | – | – | – | – | –
CSc1nc2cc(Oc3cccc4ccccc34)c(Cl)cc2n1COP(=O)([O-])[O-].[Na+].[Na+] | – | > 26 | 100 | 95.8 | 100 | 95.8 | 100 | 100 | – | 95.1 | 44.9 | 65.8 | 83.3 | 87.8 | 61.4
